# Read-outs that look alike come from different tables or passages of the source.
# Legend:
# Type in all cases: cell-based, human
# [1] = test system: RPMI 8392 cells; assay: Apoptosis by endonuclease-digested DNA (DNA laddering) on agarose gels; settings: Homo sapiens, read-out: Concentrations at which apoptosis was induced
# Procedure: The preferred method for testing the ability of AS ODN to induce apoptosis as determined by detection of endonuclease digested DNA on agarose gels employs the following sequence:
# (2) Cells are grown to ≈10^6 /ml, collected by centrifugation for 5 min. at 300×g (1000 rpm in an IEC Model K centrifuge), resuspended in growth medium to 10^6 cells/ml, and placed in a 24 well tissue culture plate at 1 ml/well. The cell volumes are kept to a minimum (i.e., -1 ml), in order to reduce the amount of ODN needed. The fetal bovine serum used in the growth medium for this step is heat-inactivated at 65° C. for 1 hr. to minimize serum nuclease activity.
# (4) Cells are then incubated for varying times, usually 1-3 days, following which the DNA is isolated.
# The supernatant is aspirated down to ≈50 μl of volume and the cell pellet is resuspended in this remaining small volume.
# (6) About 400 μl of cold cell lysis buffer (50 mM Tris-HCl, pH 7.5, 10 mM EDTA, 1% Triton X-100) is then added.
# (9) The upper, aqueous phase is transferred to a fresh microfuge tube and 250 μl of phenol and 250 μl of chloroform are added, the mixture gently vortexed for 5 sec., and centrifuged at 16,650×g for 5 min.
# (10) The upper, aqueous phase is again transferred to a fresh microfuge tube and 500 μl of chloroform is added, followed by gentle vortexing and centrifugation at 16,650×g for 3 min.
# (11) The upper, aqueous phase is again transferred to a fresh microfuge tube, 3M sodium acetate (pH 5.2) is added to a final concentration of 0.3M, and 2.5 volumes of ice cold 100% ethanol is added. The solution is left overnight at -20° C. to precipitate the DNA.
# (12) The DNA is collected by centrifugation at 16,650×g for 15 min., the supernatant decanted, and the pellet air dried for ≈30-60 min. at room temperature. The DNA pellet is then dissolved in 50 μl of pH 8.0 TE buffer at room temperature overnight.
# (13) One μl of a 4 mg/ml solution of DNase-free RNase A is then added to the DNA and incubation is carried out at 37° C. for 30 min. This step is necessary to prevent contaminating RNA from obscuring the gel.
# (14) Thirty μl of DNA solution is then mixed with 6 μl of 6× loading buffer and run on a 2% agarose gel, containing 0.5 μg/ml ethidium bromide, in 0.5× TBE buffer (45 mM Tris-borate, 1 mM EDTA, pH 8.0) at ≈50 V for ≈1.5 hr. The 6× loading buffer used is 0.25% xylene cyanol and 30% glycerol. The use of bromophenol blue is omitted for this analysis because it tends to obscure the visualization of the DNA ladder pattern.
# (15) The gel is then visualized and photographed under UV light.
# The effect of pharmacological inhibition of each of these PDE activities on induction of apoptosis in RPMI 8392 cells was tested, using the appearance of oligonucleosome length fragments of endonuclease digested DNA as a measure of apoptosis.
# Markers (lane 1 in both gels) are 1 kb DNA ladder size markers from GIBCO/BRL.
# Cells (10^6) were collected by centrifugation at 670×g for 5 min. The cell pellets were rinsed once with 0.2M dibasic sodium phosphate and lysed in 300 μl of lysis buffer (50 mM Tris/HCl pH 7.5, 10 mM EDTA, 1% V/V Triton X-100) for 20 min on ice. Proteinase K was added to 0.5 mg/ml and DNase-free RNase was added to 50 μg/ml and the extract incubated at 37° C. for 1 hr. DNA was then extracted in phenol/chloroform (1:1) and chloroform (1:1) and precipitated in 2.5 volumes of ethanol. The extracted DNA was electrophoresed on 2% agarose gels, the gels stained with 0.5 μg/ml ethidium bromide and photographed under UV light.
# Experiments were conducted to determine if inhibition of the expression of the gene for PDE1B1 could induce apoptosis.
# [2] = test system: PDE4 mRNA in HPBL; assay: RT-PCR amplification of transcripts in HPBL
# Procedure: (§1) HPBL were purified from 30-60 ml of blood obtained from normal donors by defribrination with glass beads to remove platelets, incubated with tetracarbonyl iron to minimize monocyte contamination and centrifuged on Ficoll-Hypaque density gradients to achieve cell separation. […] For this stimulation, cells were placed in 25 cm^2 flasks in a total volume of 10 ml/flask.
# (§2) First strand cDNA was synthesized from the RNA using a Superscript Preamplification System from GIBCO/BRL. […] To this was added 10 mM Tris/HCl pH 8.4, 50 mM KCl, 2.5 mM MgCl2, 10 mM DTT, 500 μM each of dGTP, dATP, dCTP and dTTP in a total volume of 20 μl, and the resultant mix was incubated at room temperature for 5 min. Superscript II reverse transcriptase (2 U) was then added and incubation continued at 42° C. for 50 min. at 70° C. for 15 min. RNase H (2 U) was then added and incubation carried out for 20 min. at 37° C. PCR amplification was carried out in a total volume of 50 μl using 2 μl of cDNA, 20 mM Tris/HCl pH 8.4, 50 mM KCl, 1.5 mM MgCl2, 200 μM each of dGTP, dATP, dCTP and dTTP and 0.4 μM of sense and antisense primers specific for different isogenes of human PDE4, human β-actin and human PDE1B1, as described hereinafter. The PCR reaction mixture was incubated at 94° C. for 5 min. followed by the addition of 0.5 μl Taq DNA polymerase (5 U/μl, GIBCO/BRL). PCR amplification was then carried out for 35 cycles at 94° C. for 1 min., 58° C. for 1 min., 72° C. for 1 min., followed by a final extension at 72° C. for 10 min., except where indicated otherwise. A sample of amplified DNA (10 μl) was resolved on a 1.5% agarose gel containing 0.5 μg/ml ethidium bromide and visualized and photographed under UV light. […] PCR amplification with primers specific for human β-actin were run for every cell sample, as positive controls to ensure that the isolated RNA was not degraded, and for normalization to verify that relatively equal amounts of RNA were used for the first strand cDNA synthesis reactions.
# (§3) Primers specific for PDE4A, PDE4B, PDE4C, and PDE4D3 were synthesized. […] M37744; HSPDE4A4B (PDE-46), GenBank no. L20965; HSPDE4A4C (h6.1), GenBank no. U18087. […] U88712 and U88713.
# [3] = test system: PDE4B mRNA in RPMI 8392 cells; assay: RT-PCR amplification of PDE4 subtype transcripts in RPMI 8392 cells; settings: agent alone
# [4] = test system: PDE4D3 mRNA in RPMI 8392 cells; assay: as above; settings: agent alone
# [5] = test system: isolated, quiescent HPBL; assay: TUNEL assay of apoptosis, flow cytometry, quiescent HPBL; settings: mitogen PHA added to HPBL in culture
# Text: Nevertheless, the effects of AS ODNs on HPBL can still be tested by quantifying and comparing the percentage of cells undergoing apoptosis in the presence and absence of the AS ODN. Apoptosis detected by examining endonuclease-digested DNA, commonly referred to as the DNA laddering technique, has been employed and the results therefrom are set forth in FIG. 5. However, we prefer to use a TUNEL assay, an acronym for terminal deoxynucleotidyl transferase (TdT)-mediated dUTP nick end labeling, which more readily allows quantitation of the percentage of cells undergoing apoptosis. The principle of the TUNEL assay is that endonuclease digestion during apoptosis results in the formation of 3'-OH ends in the digested DNA. The digested DNA in the apoptotic cells can then be labeled with fluorescein by catalytically incorporating fluorescein-12-dUTP at the 3'-OH ends using the TdT enzyme. Fluorescence can then be quantitated by flow cytometry, using a fluorescence activated cell sorter (FACS), which would give a measure of the number of cells undergoing apoptosis. An example of the appearance of a population of fluorescein labeled apoptotic cells, as evidenced by flow cytometry, following TUNEL assay labeling of the cells, is shown in FIGS. 6A-C. Cells were then cultured for 3 days with 10 μg/ml PHA-P (Sigma), in the absence of any ODN (FIG. 6A), in the presence of 30 μM NS ODN (FIG. 6B), or in the presence of 30 μM AS ODN (FIG. 6C). Cells were then collected by centrifugation and fluorescein labeled by the TUNEL assay using the Promega Apoptosis Detection System. Flow cytometry was performed on a Beckton Dickinson FACScan by the FACS facility.
# The procedure for analyzing apoptosis by the TUNEL method uses either an In Situ Cell Death Kit, Fluorescein from Boehringer Mannheim or an Apoptosis Detection System, Fluorescein from Promega and follows the protocols of the manufacturers. The data in FIGS. 6 and 7 was obtained using the manufacturer's protocol for the Apoptosis Detection System, Fluorescein from Promega. […]
# [6] = test system: PDE1B1 mRNA in HPBL; assay: RT-PCR amplification of transcripts in HPBL
# Procedure: as §1, §2, §3
# [7] = test system: PDE4A mRNA in HPBL; assay: RT-PCR amplification of transcripts in HPBL; settings: 10 μg/ml PHA-P, 18 and 48 hr
# Procedure: as §1, §2, §3
# [8] = test system: PDE4D1 and D2 mRNA in HPBL; assay: RT-PCR amplification of transcripts in HPBL; settings: 10 μg/ml PHA-P, 18 and 48 hr
# Procedure: as §1, §2, §3
# [9] = test system: PDE4D3 mRNA in HPBL; assay: RT-PCR amplification of transcripts in HPBL; settings: 10 μg/ml PHA-P, more prominent at 48 hr than 18 hr
# Procedure: as §1, §2, §3
molecule,measurement,setting,value
CCCCOc1cc(CC2CNC(=O)N2)ccc1OC (centres unmarked) [RO 20-1724],minimal effective concentration,[1]; 24 h,≥ 10 µM
"CC(C)Cn1c(=O)n(C)c(=O)c2[nH]cnc21 [IBMX, 1-methyl-3-isobutylxanthine]","PDE4 mRNA expression, compared with dbcAMP plus IBMX",[2]; IBMX (0.1 mM) alone,same effects
same,"Expression of PDE4B mRNA, compared with dbcAMP plus IBMX",[3],reproduced
same,"Expression of PDE4D3 mRNA, compared with dbcAMP plus IBMX",[4],reproduced
phytohemagglutinin [PHA],Spontaneous apoptosis of HPBL in culture (TUNEL),[5],prevented the HPBL from undergoing spontaneous apoptosis
same,Expression of the mRNA for PDE1B1,"[6]; 10 μg/ml PHA-P, 18 and 48 hr",readily apparent
same,PDE1B1 RT-PCR cDNA fragment (≈333 nt),[6]; PHA for 3 days,show a cDNA fragment of the predicted size
same,Expression of PDE4A mRNA,[7],striking induction
same,Expression of PDE4D1 and D2 mRNA,[8],some increase in the expression
same,Expression of PDE4D3 mRNA,[9],huge induction
COc1ccc(C2CNC(=O)C2)cc1OC1CCCC1 (centres unmarked) [rolipram],minimal effective concentration,"[1]; RPMI 8392 cells, culture for 24 hr",≥ 10 µM
"CCCC(=O)Nc1ncnc2c1ncn2[C@@H]1O[C@@H]2COP(=O)(O)O[C@H]2[C@H]1OC(=O)CCC [dbcAMP, dibutyryl cAMP]","PDE4 mRNA expression, compared with dbcAMP plus IBMX",[2]; dbcAMP (1 mM) alone,same effects
same,"Expression of PDE4B mRNA, compared with dbcAMP plus IBMX",[3],reproduced
same,"Expression of PDE4D3 mRNA, compared with dbcAMP plus IBMX",[4],reproduced

# — patent US5885834A, “Antisense oligodeoxynucleotide against phosphodiesterase” (priority 1997, dated 1999)
